Measurements: article PMC12866797, “Targeting DESI2 as a Novel Therapeutic Strategy for JAK2‐Mutant Leukemias” (Advanced Science, 2025)

Key:
JOSD1 = JOSD1 (Homo sapiens, UniProt Q15040); assay: Ub-Rho fluorescence assay; type: biochemical
DESI2 [1] = target: T1, DESI2 (Homo sapiens, UniProt Q9BSY9); assay: Ub-AMC fluorescence assay, initial rate; type: biochemical
T1 construct: residues 1-194, pET28a vector, E. coli BL21 (DE3), Ni-NTA purified

DESI2 [2] = target: T1, DESI2; assay: thermal shift assay; type: binding; settings: 100 µM compound

T1 sequence (Q9BSY9 whole entry, the tested form may be a part): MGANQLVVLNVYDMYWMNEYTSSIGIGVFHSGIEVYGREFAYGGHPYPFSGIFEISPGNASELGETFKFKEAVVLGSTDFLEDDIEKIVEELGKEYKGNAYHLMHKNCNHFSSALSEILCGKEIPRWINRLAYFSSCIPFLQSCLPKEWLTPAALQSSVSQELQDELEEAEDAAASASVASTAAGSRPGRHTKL

For `N#CN1CC[C@H](C(=O)Nc2nc3cc(-c4ccc5c(c4)OCO5)ccc3s2)C1` [WWQ-03-012], the IC50 (JOSD1) was > 10 µM, the IC50 (DESI2 [1]) was 0.0473 µM and the dTm (DESI2 [2]) was 3.5 °C.
